Like-named read-outs stand apart in the source and are kept apart here. Each block holds one molecule with its values, some of them ahead of it.
Columns and labels:
[1] = molecular target: T1, endogenous kinases and other proteins enriched by Kinobeads from mixed lysates of K-562, COLO-205, MV-4-11, SK-N-BE(2) and OVCAR-8 (Homo sapiens, UniProt P35916); experiment: Kinobeads competition binding profiling, two doses (100 nM and 1 µM); conditions: target FLT4; read-out: apparent Kd;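 also: inhibitor preincubated 45 min at 4 °C in cell lysate, then bead pulldown. Bound protein quantified by label-free mass spectrometry relative to DMSO vehicle control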
T1 construct: endogenous in cells

[2] = system: CSF1R, FLT3, KIT, PDGFRB, PDGFRA; set-up: method as in chemicalprobes.org; conditions: ref chemicalprobes.org, cited from earlier work
[3] = system: CSF1R, FLT3, KIT, PDGFRB, PDGFRA; set-up: method as in chemicalprobes.org; conditions: 2nd of 4 values listed for 5 targets; ref chemicalprobes.org; read-out: Potency value in cells (IC50); cited from earlier work
[4] = system: IL-10 secretion in primary bone marrow-derived dendritic cells (BMDCs); experiment: IL-10 cytokine secretion assay (ELISA) in Zymosan-stimulated primary BMDCs; assay type: cell-based, mouse; conditions: murine BMDCs, inhibitor 30 min before Zymosan stimulation
Experimental: A subsequent full dose–response experiment confirmed potent and selective binding to SYK ( Kdapp = 58 nM, […] = 0.60; Extended Data Fig. 5a,b). […] One of the effects of Zymosan is that it activates Dectin-1 signaling, in turn activating SYK and leading to increased IL-10 cytokine production (Fig. 3c)[34]. Treatment of cells with the respective SYK inhibitors before Zymosan stimulation indeed led to decreased levels of IL-10 in a dose-dependent fashion (Fig. 3d). […] In line with the cytokine readout, we observed a dose depended reduction of pTyr525/526 indicating SYK inhibition in live cells (Fig. 3e and Extended Data Fig. 5c).
Primary BMDCs were obtained from 9-week-old C57BL/6 mice that were maintained under standard specific pathogen-free conditions. BMDCs were differentiated for 7 days in Roswell Park Memorial Institute medium (Gibco) and granulocyte-macrophage colony-stimulating factor. On day seven, BMDCs were seeded in 96-well plates at 10^5 cells per well in 100 µl of culture medium followed by incubation for 4 h at 37 °C. Subsequently, cells were incubated with SYK inhibitors for 30 min followed by stimulation with Zymosan (final concentration of 50 µg ml^−1; Invivogen) and dispersed in culture medium for 24 h. […] For cytokine secretion quantification, cell culture medium was collected and concentrations of IL-10 in the supernatant were determined using mouse enzyme-linked immunosorbent assay kits (IL-10: Invitrogen) according to the manufacturer’s protocol. Experiments were performed in biological triplicates.

[5] = molecular target: T2, endogenous kinases and other proteins enriched by Kinobeads from mixed cancer cell lysates (Homo sapiens, UniProt P67870); experiment: Kinobeads pulldown, full dose-response (eight doses); assay type: binding; conditions: target CSNK2B; in nM;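 also: competition with Kinobeads ε after inhibitor preincubation in lysate (5 mg/ml protein) for 45 min at 4 °C, DMSO control, doses 0.3–1,000 nM, label-free LC–MS/MS quantification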
T2 construct: endogenous in cells

[6] = molecular target: T3, endogenous kinases and other proteins enriched by Kinobeads from mixed cancer cell lysates (Homo sapiens, UniProt P68400); experiment: as above; assay type: binding; conditions: target CSNK2A1;CSNK2A3; in nM
T3 construct: endogenous in cells

[7] = molecular target: T4, endogenous kinases and other proteins enriched by Kinobeads from mixed cancer cell lysates (Homo sapiens, UniProt Q86TW2); experiment: as above; assay type: binding; conditions: target ADCK1; in nM
T4 construct: endogenous in cells

[8] = molecular target: T5, endogenous kinases and other proteins enriched by Kinobeads from mixed cancer cell lysates (Homo sapiens, UniProt P16083); experiment: as above; assay type: binding; conditions: target NQO2; in nM
T5 construct: endogenous in cells

[9] = molecular target: T6, endogenous kinases and other proteins enriched by Kinobeads from mixed cancer cell lysates (Homo sapiens, UniProt O75822); experiment: as above; assay type: binding; conditions: target EIF3J; in nM
T6 construct: to maximize the representation of endogenous proteins; endogenous in cells

[10] = molecular target: T7, endogenous kinases and other proteins enriched by Kinobeads from mixed cancer cell lysates (Homo sapiens, UniProt P19784); experiment: as above; assay type: binding; conditions: target CSNK2A2; in nM
T7 construct: endogenous in cells

[11] = molecular target: T8, endogenous kinases and other proteins enriched by Kinobeads from mixed cancer cell lysates (Homo sapiens, UniProt Q9Y616); experiment: as above; assay type: binding; conditions: target IRAK3; in nM
T8 construct: endogenous in cells

[12] = molecular target: T9, ERN1 (Homo sapiens, UniProt O75460); set-up: method as in chemicalprobes.org; conditions: truncated human IRE1 alpha WT (AA 469-977); ref chemicalprobes.org; cited from earlier work
T9 construct: endogenous in cells

[13] = system: XBP1 splicing in cells; set-up: method as in chemicalprobes.org; conditions: ref chemicalprobes.org; read-out: Potency value in cells (IC50); cited from earlier work
[14] = molecular target: T10, ABL2 (Homo sapiens, UniProt P42684); experiment: Kinobeads two-dose competition binding: ABL2; conditions: sheet CATDS matrix 2; Gene Name ABL2
T10 construct: endogenous in cells

[15] = molecular target: T11, ACAD11 (Homo sapiens, UniProt Q709F0); experiment: Kinobeads two-dose competition binding: ACAD11; conditions: sheet CATDS matrix 2; Gene Name ACAD11
T11 construct: endogenous in cells
T11 sequence (Q709F0 1-780): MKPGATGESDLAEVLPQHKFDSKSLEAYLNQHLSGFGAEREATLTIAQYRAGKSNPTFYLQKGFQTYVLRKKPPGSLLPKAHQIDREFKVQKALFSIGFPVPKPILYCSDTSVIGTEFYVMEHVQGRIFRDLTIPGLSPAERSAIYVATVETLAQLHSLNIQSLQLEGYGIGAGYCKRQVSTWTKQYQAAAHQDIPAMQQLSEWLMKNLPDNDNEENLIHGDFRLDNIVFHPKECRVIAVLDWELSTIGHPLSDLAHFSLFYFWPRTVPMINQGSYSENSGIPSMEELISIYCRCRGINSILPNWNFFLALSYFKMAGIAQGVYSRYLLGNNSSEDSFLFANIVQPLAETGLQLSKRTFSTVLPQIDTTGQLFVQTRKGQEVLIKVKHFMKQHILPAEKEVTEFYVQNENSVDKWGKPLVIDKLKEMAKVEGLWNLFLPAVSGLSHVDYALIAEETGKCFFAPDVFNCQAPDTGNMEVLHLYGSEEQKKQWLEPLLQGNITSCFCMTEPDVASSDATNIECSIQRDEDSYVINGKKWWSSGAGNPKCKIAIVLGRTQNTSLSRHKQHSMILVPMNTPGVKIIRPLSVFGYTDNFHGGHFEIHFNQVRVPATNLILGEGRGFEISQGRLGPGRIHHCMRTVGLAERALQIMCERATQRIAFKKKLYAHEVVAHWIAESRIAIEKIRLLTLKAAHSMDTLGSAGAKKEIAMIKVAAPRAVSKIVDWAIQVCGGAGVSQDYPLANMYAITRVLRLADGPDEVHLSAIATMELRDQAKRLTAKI

[16] = molecular target: T12, AAK1 (Homo sapiens, UniProt Q2M2I8); experiment: Kinobeads two-dose competition binding: AAK1;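 also: kinobeads competition pulldown from cell lysate, compound preincubated 45 min at 4 °C, bead-bound protein measured by label-free mass spectrometry against DMSO vehicle control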
T12 construct: to maximize the representation of endogenous proteins; endogenous in cells

[17] = system: endogenous kinases and other proteins enriched by Kinobeads from mixed lysates of K-562, COLO-205, MV-4-11, SK-N-BE(2) and OVCAR-8; experiment: Kinobeads competition binding profiling, two doses (100 nM and 1 µM); set-up: species or system human; conditions: in words;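 also: inhibitor preincubated 45 min at 4 °C in cell lysate, then bead pulldown. Bound protein quantified by label-free mass spectrometry relative to DMSO vehicle control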
[18] = molecular target: T13, ABL1 (Homo sapiens, UniProt P00519); experiment: Kinobeads two-dose competition binding: ABL1; conditions: sheet CATDS matrix 2; Gene Name ABL1
[19] = molecular target: T10, ABL2; experiment: Kinobeads two-dose competition binding: ABL2; conditions: sheet "Kinobeads Drugmatrix - all"; unit inferred; read-out: Kinobeads Drugmatrix - all: apparent Kd, ABL2
[20] = molecular target: T14, ACOX1 (Homo sapiens, UniProt Q15067); experiment: Kinobeads two-dose competition binding: ACOX1; conditions: sheet CATDS matrix 2; Gene Name ACOX1;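 also: competition of compounds with immobilized broad-spectrum kinase inhibitor beads in cell lysate at 100 and 1,000 nM, 45 min at 4 °C, bead-bound protein quantified by label-free MS versus DMSO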
T14 construct: endogenous in cells
T14 sequence (Q15067 1-660): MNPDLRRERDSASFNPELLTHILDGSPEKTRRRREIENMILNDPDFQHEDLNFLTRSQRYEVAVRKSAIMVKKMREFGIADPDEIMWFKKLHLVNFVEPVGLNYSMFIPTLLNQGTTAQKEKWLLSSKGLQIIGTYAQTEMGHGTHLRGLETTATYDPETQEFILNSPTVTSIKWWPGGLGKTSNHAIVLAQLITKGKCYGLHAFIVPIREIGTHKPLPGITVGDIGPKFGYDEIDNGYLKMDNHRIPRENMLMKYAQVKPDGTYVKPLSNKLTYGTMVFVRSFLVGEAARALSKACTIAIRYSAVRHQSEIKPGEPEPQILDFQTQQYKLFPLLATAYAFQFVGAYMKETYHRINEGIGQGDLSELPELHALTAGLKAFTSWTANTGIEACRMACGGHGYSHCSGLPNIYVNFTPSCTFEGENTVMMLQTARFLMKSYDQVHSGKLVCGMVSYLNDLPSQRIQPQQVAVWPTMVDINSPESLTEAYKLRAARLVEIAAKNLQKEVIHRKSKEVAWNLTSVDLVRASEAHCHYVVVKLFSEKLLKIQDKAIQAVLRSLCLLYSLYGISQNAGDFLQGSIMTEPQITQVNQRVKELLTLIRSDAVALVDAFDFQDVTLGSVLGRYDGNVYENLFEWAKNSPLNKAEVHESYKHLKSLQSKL

[21] = molecular target: T13, ABL1; experiment: Kinobeads two-dose competition binding: ABL1; conditions: sheet "Kinobeads Drugmatrix - all"; unit inferred; read-out: Kinobeads Drugmatrix - all: apparent Kd, ABL1
[22] = molecular target: T11, ACAD11; experiment: Kinobeads two-dose competition binding: ACAD11; conditions: sheet "Kinobeads Drugmatrix - all"; unit inferred; read-out: Kinobeads Drugmatrix - all: apparent Kd, ACAD11
[23] = molecular target: T15, PAK4 (Homo sapiens, UniProt O96013); experiment: Kinobeads full dose-response competition binding: PAK4; conditions: Gene Name PAK4, doses in nM
T15 construct: a mixture of lysates from five cancer cell lines; endogenous in cells

[24] = molecular target: T16, PRKCA (Homo sapiens, UniProt P17252); experiment: Kinobeads full dose-response competition binding: PRKCA; conditions: Gene Name PRKCA, doses in nM
T16 construct: endogenous in cells

[25] = molecular target: T17, endogenous kinases and other proteins enriched by Kinobeads from mixed lysates of K-562, COLO-205, MV-4-11, SK-N-BE(2) and OVCAR-8 (Homo sapiens, UniProt Q8NI60); experiment: Kinobeads competition binding profiling, two doses (100 nM and 1 µM); conditions: target ADCK3; read-out: apparent Kd;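 also: inhibitor preincubated 45 min at 4 °C in cell lysate, then bead pulldown. Bound protein quantified by label-free mass spectrometry relative to DMSO vehicle control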
T17 construct: to maximize the representation of endogenous proteins; endogenous in cells

[26] = molecular target: PKN3 (Homo sapiens, UniProt Q6P5Z2); set-up: full-length PKN3, CSNK2A1 or CSNK2A2 ORF; host or cells: HEK293T; conditions: reported for the most potent 4-anilinoquin(az)oline; cited from earlier work
[27] = molecular target: T18, endogenous kinases and other proteins enriched by Kinobeads from mixed lysates of K-562, COLO-205, MV-4-11, SK-N-BE(2) and OVCAR-8 (Homo sapiens, UniProt O43353); experiment: Kinobeads competition binding profiling, two doses (100 nM and 1 µM); conditions: target RIPK2; read-out: apparent Kd;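 also: inhibitor preincubated 45 min at 4 °C in cell lysate, then bead pulldown. Bound protein quantified by label-free mass spectrometry relative to DMSO vehicle control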
T18 construct: to maximize the representation of endogenous proteins; endogenous in cells

[28] = system: Concanavalin A-induced cytokine production in Whole Blood; set-up: method as in chemicalprobes.org; conditions: ref chemicalprobes.org, read-out: Potency value in cells (EC50); cited from earlier work
[29] = system: LCK; set-up: method as in chemicalprobes.org; conditions: @ 1 mM ATP, ref chemicalprobes.org; cited from earlier work
[30] = EC50 with Correction, read-out: apparent Kd

T13 sequence (P00519 28-1130 limits assumed): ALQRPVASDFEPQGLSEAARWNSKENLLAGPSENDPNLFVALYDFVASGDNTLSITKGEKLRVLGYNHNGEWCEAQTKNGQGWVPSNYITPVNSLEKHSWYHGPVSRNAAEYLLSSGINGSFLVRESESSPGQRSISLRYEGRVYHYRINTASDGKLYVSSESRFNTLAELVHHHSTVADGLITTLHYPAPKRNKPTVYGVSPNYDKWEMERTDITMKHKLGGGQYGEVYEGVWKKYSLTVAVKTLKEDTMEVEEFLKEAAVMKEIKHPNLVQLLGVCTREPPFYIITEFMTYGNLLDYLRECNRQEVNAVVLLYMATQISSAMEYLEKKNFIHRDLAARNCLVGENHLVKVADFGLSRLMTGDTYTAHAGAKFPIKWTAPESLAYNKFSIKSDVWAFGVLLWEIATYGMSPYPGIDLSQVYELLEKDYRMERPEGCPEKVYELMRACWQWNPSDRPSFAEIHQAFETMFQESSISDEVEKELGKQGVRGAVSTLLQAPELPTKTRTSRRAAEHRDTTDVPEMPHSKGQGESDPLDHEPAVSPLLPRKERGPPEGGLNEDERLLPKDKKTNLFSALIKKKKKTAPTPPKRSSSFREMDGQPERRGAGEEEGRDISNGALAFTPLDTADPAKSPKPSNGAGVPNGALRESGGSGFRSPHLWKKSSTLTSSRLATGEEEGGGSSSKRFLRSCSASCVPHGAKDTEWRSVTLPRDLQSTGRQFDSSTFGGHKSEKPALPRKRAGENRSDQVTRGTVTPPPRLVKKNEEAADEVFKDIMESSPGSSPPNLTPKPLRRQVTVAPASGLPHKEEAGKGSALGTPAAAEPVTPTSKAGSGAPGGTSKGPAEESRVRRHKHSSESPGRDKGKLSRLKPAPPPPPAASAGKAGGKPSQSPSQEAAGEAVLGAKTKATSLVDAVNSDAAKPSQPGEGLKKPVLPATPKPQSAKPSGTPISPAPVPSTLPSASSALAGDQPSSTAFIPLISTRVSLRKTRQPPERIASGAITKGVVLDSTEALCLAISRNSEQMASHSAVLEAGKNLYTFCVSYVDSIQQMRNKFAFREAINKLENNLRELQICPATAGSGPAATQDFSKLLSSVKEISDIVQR
T15 sequence (O96013 whole entry): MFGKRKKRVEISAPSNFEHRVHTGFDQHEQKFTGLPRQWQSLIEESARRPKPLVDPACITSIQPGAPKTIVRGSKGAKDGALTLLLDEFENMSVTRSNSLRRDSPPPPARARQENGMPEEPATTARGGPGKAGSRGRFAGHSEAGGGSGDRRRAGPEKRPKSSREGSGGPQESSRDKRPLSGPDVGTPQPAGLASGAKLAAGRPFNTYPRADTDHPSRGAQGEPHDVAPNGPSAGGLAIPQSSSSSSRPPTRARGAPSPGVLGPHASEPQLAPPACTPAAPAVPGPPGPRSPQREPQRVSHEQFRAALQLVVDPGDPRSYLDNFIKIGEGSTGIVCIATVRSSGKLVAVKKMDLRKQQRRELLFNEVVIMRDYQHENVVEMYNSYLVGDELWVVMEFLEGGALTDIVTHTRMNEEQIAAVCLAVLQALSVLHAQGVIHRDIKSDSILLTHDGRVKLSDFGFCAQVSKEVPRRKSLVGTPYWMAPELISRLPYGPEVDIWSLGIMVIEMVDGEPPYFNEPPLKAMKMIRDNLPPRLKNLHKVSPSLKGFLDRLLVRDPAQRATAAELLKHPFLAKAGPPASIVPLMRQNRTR
T12 sequence (Q2M2I8 whole entry): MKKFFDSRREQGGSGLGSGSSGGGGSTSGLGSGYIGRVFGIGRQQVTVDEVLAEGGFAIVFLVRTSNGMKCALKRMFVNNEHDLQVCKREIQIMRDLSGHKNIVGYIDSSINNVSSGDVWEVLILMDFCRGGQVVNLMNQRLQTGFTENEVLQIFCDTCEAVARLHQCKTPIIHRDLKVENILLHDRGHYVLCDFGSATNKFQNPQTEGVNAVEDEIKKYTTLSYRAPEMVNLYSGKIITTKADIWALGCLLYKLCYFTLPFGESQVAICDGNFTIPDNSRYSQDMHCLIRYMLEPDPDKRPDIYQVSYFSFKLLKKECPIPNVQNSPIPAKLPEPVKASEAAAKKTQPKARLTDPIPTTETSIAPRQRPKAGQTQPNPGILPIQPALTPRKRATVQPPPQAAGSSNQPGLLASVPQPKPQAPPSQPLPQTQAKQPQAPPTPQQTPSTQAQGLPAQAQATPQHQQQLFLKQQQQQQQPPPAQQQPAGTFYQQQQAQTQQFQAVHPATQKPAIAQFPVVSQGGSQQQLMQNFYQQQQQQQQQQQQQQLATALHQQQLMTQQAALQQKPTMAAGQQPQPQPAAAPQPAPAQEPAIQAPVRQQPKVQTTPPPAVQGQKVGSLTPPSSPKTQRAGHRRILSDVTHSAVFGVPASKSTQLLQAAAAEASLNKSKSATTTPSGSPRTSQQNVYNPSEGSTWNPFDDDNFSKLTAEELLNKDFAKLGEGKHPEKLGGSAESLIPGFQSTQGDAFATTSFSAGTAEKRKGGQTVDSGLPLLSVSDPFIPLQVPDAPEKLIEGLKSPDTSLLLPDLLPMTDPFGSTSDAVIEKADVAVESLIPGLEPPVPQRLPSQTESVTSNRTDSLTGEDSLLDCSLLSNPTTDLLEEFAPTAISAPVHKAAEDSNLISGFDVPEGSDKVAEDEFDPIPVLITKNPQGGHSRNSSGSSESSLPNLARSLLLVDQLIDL
T10 sequence (P42684 whole entry): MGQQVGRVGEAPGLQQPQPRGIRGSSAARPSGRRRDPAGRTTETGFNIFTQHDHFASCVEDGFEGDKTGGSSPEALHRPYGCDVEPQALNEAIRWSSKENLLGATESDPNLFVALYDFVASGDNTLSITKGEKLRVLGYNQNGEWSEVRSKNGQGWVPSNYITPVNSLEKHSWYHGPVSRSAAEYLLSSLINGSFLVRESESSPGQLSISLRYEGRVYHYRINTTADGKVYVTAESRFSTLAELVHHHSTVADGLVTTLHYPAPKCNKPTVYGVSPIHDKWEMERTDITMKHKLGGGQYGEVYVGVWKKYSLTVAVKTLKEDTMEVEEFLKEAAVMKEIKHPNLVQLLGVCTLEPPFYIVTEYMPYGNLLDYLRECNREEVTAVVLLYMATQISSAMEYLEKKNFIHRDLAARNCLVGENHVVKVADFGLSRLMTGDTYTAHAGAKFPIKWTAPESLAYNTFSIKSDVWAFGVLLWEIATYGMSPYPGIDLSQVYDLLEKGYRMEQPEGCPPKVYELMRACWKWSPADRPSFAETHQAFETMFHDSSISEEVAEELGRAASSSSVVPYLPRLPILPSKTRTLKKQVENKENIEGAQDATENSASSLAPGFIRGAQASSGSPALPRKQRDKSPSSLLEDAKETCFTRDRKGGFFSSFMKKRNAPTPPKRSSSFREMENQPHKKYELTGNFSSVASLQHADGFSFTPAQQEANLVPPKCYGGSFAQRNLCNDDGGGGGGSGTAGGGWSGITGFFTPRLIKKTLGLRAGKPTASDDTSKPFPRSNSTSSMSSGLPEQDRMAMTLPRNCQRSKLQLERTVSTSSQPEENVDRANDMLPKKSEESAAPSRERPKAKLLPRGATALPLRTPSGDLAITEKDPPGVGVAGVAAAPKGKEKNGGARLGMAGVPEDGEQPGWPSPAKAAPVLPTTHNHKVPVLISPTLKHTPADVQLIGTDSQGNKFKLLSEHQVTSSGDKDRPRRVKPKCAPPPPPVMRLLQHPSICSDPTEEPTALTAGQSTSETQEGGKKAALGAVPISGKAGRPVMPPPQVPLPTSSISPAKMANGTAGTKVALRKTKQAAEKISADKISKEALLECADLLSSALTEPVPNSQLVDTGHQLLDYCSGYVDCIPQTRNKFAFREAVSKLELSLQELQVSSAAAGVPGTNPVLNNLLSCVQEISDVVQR
T18 sequence (O43353 whole entry): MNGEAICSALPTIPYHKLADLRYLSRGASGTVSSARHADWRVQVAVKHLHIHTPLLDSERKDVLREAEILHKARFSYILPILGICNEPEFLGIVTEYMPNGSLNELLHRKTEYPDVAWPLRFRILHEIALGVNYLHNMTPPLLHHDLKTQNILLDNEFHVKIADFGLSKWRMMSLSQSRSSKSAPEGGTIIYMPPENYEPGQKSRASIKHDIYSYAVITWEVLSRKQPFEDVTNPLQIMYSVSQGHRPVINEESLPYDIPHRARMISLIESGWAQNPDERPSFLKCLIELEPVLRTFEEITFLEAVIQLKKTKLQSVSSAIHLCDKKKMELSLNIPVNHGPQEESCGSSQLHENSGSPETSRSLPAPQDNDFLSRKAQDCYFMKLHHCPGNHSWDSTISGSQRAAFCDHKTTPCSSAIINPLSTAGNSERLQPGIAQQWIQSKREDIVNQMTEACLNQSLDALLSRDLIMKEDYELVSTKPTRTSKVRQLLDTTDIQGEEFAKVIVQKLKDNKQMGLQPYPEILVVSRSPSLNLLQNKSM

Compound: CCN1C(C)(C)CC(Oc2ccc(C(=O)Nc3ccc(NC(=O)Nc4cc(C(C)(C)C)on4)cc3)nc2)CC1(C)C [AC710]
- Potency value ([2]; 1st of 4 values listed for 5 targets): 0.0005 µM
- Potency value ([2]; 2nd of 4 values listed for 5 targets): 0.0006 µM
- Potency value ([2]; 3rd of 4 values listed for 5 targets): 0.001 µM
- Potency value ([2]; 4th of 4 values listed for 5 targets): 0.0013 µM
- IC50 [3]: 0.002 µM

Compound: Cc1ccc2c(NS(=O)(=O)c3ccccc3Cl)cccc2c1Oc1ncccc1-c1ccnc(N[C@H]2CCCNC2)n1 [AMG-18]
- Potency value [12]: 0.013 µM
- IC50 [13]: 0.099 µM

Compound: Cc1cccc(Nc2nc(N[C@H]3CCCC[C@H]3N)ncc2C(N)=O)c1 [GSK986310C]
- Kd [23, 30]: 65.9 nM
- EC50 ([23]; eight-dose curve fit): 135 nM
- Kd [24, 30]: 272 nM
- EC50 ([24]; eight-dose curve fit): 446 nM
- IL-10 levels [4]: dose-dependent reduction

Compound: COc1cc(Nc2ccnc3cc(I)ccc23)cc(OC)c1OC [UNC-CA94]
- in-cell target engagement PKN3 [26]: 1.3 µM

Compound: COc1cc(-c2nn([C@H]3CC[C@H](N4CCN(C(C)=O)CC4)CC3)c3ncnc(N)c23)ccc1NC(=O)c1cc2ccccc2n1C [Compound A-770041]
- EC50 [28]: 0.08 µM
- Potency value [29]: 147 nM @ 1 mM ATP

Continued, in another order:

- potency estimated from few doses [1]: 0.423 µM
Compound: CCS(=O)(=O)c1ccc(OC)c(Nc2ncc(-c3cccc(-c4ccccc4F)c3)o2)c1 [GW678313X]

- EC50 [5]: 940.697
- EC50 [6]: 1585.19
- EC50 [7]: 16437.9
- EC50 [8]: 295.4
- EC50 [9]: 1609.61
- EC50 [10]: 1314.91
- EC50 [11]: 4708.37
Compound: c1cn2cc(-c3ccc4cn[nH]c4c3)nc(Nc3ccc(N4CCOCC4)cc3)c2n1 [entospletinib]
- IL-10 levels [4]: dose-dependent reduction

- CATDS [14]: 0.01467
- CATDS [15]: 0
- potency estimated from few doses ([16]; sheet "Kinobeads Drugmatrix - all", unit inferred, same values below 1000 recur in sheet "nanomolar", read-out: Kinobeads Drugmatrix - all: apparent Kd, AAK1): 0.0844 µM
- CATDS ([16]; sheet CATDS matrix 2, Gene Name AAK1): 0.03418
- selectivity in the Kinobeads assay (CATDSmost potent) [17]: unselective
- CATDS [18]: 0
- potency estimated from few doses [19]: 0.433 µM
- CATDS [20]: 0
- potency estimated from few doses [21]: > 1 µM
- potency estimated from few doses [22]: > 1 µM
Compound: NCC(C(=O)Nc1cc(Br)c(-c2ccnc3[nH]ccc23)s1)c1ccccc1 (stereo not drawn) [GSK1269851A]

- potency estimated from few doses [25]: 0.747 µM
Compound: CNC(=O)c1cncc(/C=C/c2ccccc2Cl)c1 [GW445017X]

- potency estimated from few doses [27]: 0.773 µM
Compound: CNC(=O)c1cncc(/C=C/c2c(Cl)cccc2Cl)c1 [GW445014X]

From paper PMC11062922 (Nature Chemical Biology, 2023)
